According to patent US20040115209A1, “Compound targeted for specific cells with reduced systemic toxicity” (priority 2000, published 2004):

Key:
B104 cells [1] = assay: Kinetics of paclitaxel cytotoxicity: single bolus versus constant exposure (MTT); format: cell-based, rat
Description: It is likely that a single bolus of paclitaxel•antibody conjugate would be delivered because affected cells would not synthesize additional target receptor. Therefore we tested whether a single bolus of paclitaxel would be an effective cytotoxic agent. Cells were exposed to the indicated concentration of paclitaxel for 30 minutes at 4° C. Then, cells were plated in a 96-well plate (Falcon); this group represents treatment with paclitaxel present in a constant manner. The remaining cells were washed free of excess paclitaxel prior to plating; this group represents a single exposure to paclitaxel. […] Optical density readings of MTT were done in an EIA Plate Reader model 2550 (Bio-Rad) at 595 nm.

NIH-3T3 cells = assay: MTT cytotoxicity of paclitaxel•MC192, cells that do not express p75; format: cell-based, mouse
Description: (§1) The survival profile of the cells was measured with the MTT assay 72 hr after plating.

B104 cells [2] = format: in vivo; details: ˜3.5 nM
Description: Nude mice (seven weeks old, female) were used to test the effect of paclitaxel or conjugates in tumor progression. Single cell suspensions of B104 cells (10^5/mouse) were injected subcutaneously in the left flank near the rib cage. Tumor growth was monitored daily. […] Mice were then randomized and treatments were initiated in four groups (n=5 in each group). […] All treatments were done by a total of five injections every two days (for a total of ten days). All injections were done IP on the right side to prevent direct contact of the agents to the tumor growing subcutaneously, and to assure that systemic circulation of the drugs was achieved. Measurements of tumor volume were taken using calipers, every day post treatment for a total of 25 days.
The timeline was: day −14 injection of tumors subcutaneously, days −10, −8, −6, −4, −2 injection of drugs or controls, days 0-25 measurement of tumor growth daily.
Statistical significance of differences in tumor growth among the different treatment groups was determined by the student t test using SYSTAT 7.0 software. P value is significant when it is <0.05.

B104 cells [3] = assay: MTT cytotoxicity of paclitaxel•MC192, B104 cells; format: cell-based, rat; details: addition of 40 nM MC192
Description: as §1

4-3.6 cells = assay: In vitro survival assay in serum free media (MTT), 4-3.6 cells; format: cell-based, rat; details: ˜48 hrs, zVAD 20 nM, conjugate 20 nM VAD equivalent, 1 nM 5C3
Description: 4-3.6 cells are placed in serum free media (SFM, PFHM-II, GIBCO, Toronto), where they undergo apoptosis (serum-withdrawal model).
Cells were then cultured for ˜48 hrs. Cell growth/survival was calculated relative to 5% serum (standardized to 100%).

NIH 3T3 cells = details: mouse fibroblasts
Description: (§2) Competition of Doxorubicin-α-IR3 cytotoxicity was done by adding a 10-fold molar excess of α-IR3 antibody. The survival profile of the cells was measured with the MTT assay 72 hr after plating.

KB-V cells = assay: MTT cytotoxicity of Doxorubicin-mAb α-IR3, KB-V cells (p-glycoprotein resistant); format: cell-based, human
Description: as §2

NWT-b3 cells = details: mouse, 72 h
Description: as §2

KB cells = assay: MTT cytotoxicity of Doxorubicin-mAb α-IR3, KB cells; format: cell-based; details: Homo sapiens, 72 h, 3 days, n = 3
Description: as §2

CC(=O)O[C@H]1C(=O)[C@@]2(C)[C@H]([C@H](OC(=O)c3ccccc3)[C@]3(O)C[C@H](OC(=O)[C@H](O)[C@@H](NC(=O)c4ccccc4)c4ccccc4)C(C)=C1C3(C)C)[C@]1(OC(C)=O)CO[C@@H]1C[C@@H]2O [paclitaxel]
cytotoxic effect of a single exposure versus constant exposure (B104 cells [1]; 20 nM, after 72 and 96 hours of culture): significantly less effective than constant exposure | cytotoxic effect, single exposure versus constant presence (B104 cells [1]; 30 minutes at 4° C. exposure, several concentrations, MTT 48, 72, 96 hr): generally the same whether the drug is present in the culture throughout or after a single exposure | cytotoxicity on cells that do not express p75 (NIH-3T3 cells): dose-dependent cytotoxicity | efficacy in vivo at the dose effective for the conjugate (B104 cells [2]): not effective at this dose | cytotoxicity under ligand competition (B104 cells [3]): same cytotoxicity whether or not 40 nM of mouse IgG or 40 nM of MC192 antibody were added

benzoic acid-Valine-Alanine-Aspartic acid-O-methyl-fluoromethylketone peptide [zVAD]
4-3.6 Cell Survival (MTT, % of serum control) (4-3.6 cells): −2 ± 3 % of serum control

COc1cccc2c1C(=O)c1c(O)c3c(c(O)c1C2=O)C[C@@](O)(C(=O)CO)C[C@@H]3O[C@H]1C[C@H](N)[C@H](O)[C@H](C)O1 [Doxorubicin]
cytotoxicity on cells that do not express IGF-IR (NIH 3T3 cells): dose-dependent cytotoxicity | IC50 (KB-V cells; Homo sapiens, KBV, 72 h, KB-V cells, 3 days, MTT, n = 3): > 0.32 µM | cytotoxicity on multidrug resistant cells (KB-V cells; KB-V compared to sensitive KB cells, with or without Verapamil): inactive on KB-V cells unless Verapamil was added | cytotoxicity under ligand competition (NWT-b3 cells): same cytotoxicity whether excess of mlg or α-IR3 was present or not | IC50 (KB cells): 0.06 ± 0.002 µM
